Data taken from patent US20100305023A1, “Method of Delaying The Onset of Clinically Definite Multiple Sclerosis” (Teva Pharmaceutical Industries, Ltd., priority 2007, published 2010).
Like-named read-outs stand apart in the source and are kept apart here.

Assays:
[1] = system: patients presenting a clinically isolated syndrome (CIS)
Procedure: A clinical trial was undertaken to assess the effect of treatment with GA compared to placebo on the time to conversion to CDMS, as determined by Poser (the occurrence of the second clinical attack) during the double-blind phase.
Subjects receive their first dose of study medication at the baseline visit. 20 mg GA formulation is injected once daily by subcutaneous route via pre-filled syringe manufactured by Teva Pharmaceutical Industries Ltd., Israel. Subjects are evaluated at study centers at baseline, at months 1, 3, and every 3 months thereafter.
The duration of the double-blind phase is 36 months (3 years) or until subject's conversion to CDMS, whichever comes first. Conversion to CDMS is counted when the subject's symptoms are accompanied by observed objective neurological changes, consistent with: • a) an increase of at least 0.5 in the EDSS score or one grade in the score of two or more of the seven Functional Systems (FS); or • b) two grades in the score of one of FS as compared to the previous evaluation.
The subject must not be undergoing any acute metabolic changes such as fever or other medical abnormality. A change in bowel/bladder function or in cognitive function must not be entirely responsible for the changes in EDSS or FS scores.

[2] = system: patients with RRMS; details: cited from earlier work
[3] = system: subjects with clinically isolated syndrome (CIS) suggestive of MS; details: MRS, NAA/Cr over time
Procedure: Single voxel magnetic resonance spectroscopy (MRS) exams were performed at baseline and once a year subsequently. Scans were quantified locally and sent to the MRS Unit (Montreal) where they were deemed acceptable or in need of repeat (either acquisition or analysis). The MRS endpoint is the change in the ratio of N-acetylaspartate/creatine (NAA/Cr) ratio over time. NAA is seen only in neuronal tissue and is a marker of neuronal integrity; reducing with most types of insults to the brain. Cr is often used as an internal reference because it is relatively stable.
MRS scans were performed after T2-weighted fast-spin-time echo (FSE/TSE) scans and before gadolinium injection. MRS data was obtained from a region of central white matter using a 90-180-180 (PRESS) volume selective sequence to excite a volume of 100 mm×100 mm×20 mm (range 80-100 mm×80-100 mm×20 mm) centered on the body of the corpus callosum using a long echo time (TR 2000, TE 272). The rotation of the acquisition region was the same as for the main image series. […] The region was centered left-right so that the brain mid-line passes centrally through the region. The region was positioned anterior-posterior so that the anterior corners and posterior corners are equidistant from the skull.

[4] = system: patients presenting a clinically isolated syndrome (CIS); remark: listed apart in the source
Procedure: Subgroup analyses related to the primary efficacy variable were performed with respect to demographics and CIS characteristics at initial attack onset (gender, age, and type of unifocal manifestation and steroid treatment for the initial attack), and MRI findings (disease dissemination/activity) at study baseline.
No correction for multiplicity was done for any of the following post-hoc analyses. • 1. Subgroup analysis of the primary endpoint for: gender, age, type of unifocal manifestation and corticosteroid use for the initial attack employed the Cox proportional hazards model, as for the principal analysis. Subgroup analyses of proportion of subjects converted to CDMS according to MRI activity at baseline was analyzed using Logistic Regression, as in the fourth secondary endpoint. • 2. Number of relapses: analysis of number of relapses during the placebocontrolled phase, during the entire study and on a yearly basis was performed using the Poisson regression. • 3. Time to confirmed Expanded Disability Status Scale (EDSS) progression: Progression of disability was defined as worsening of at least 1 point in EDSS sustained over 2 consecutive measurements which are at least 6 months apart. Analysis of time to confirmed EDSS progression was performed employing the Cox proportional hazards model.
Subgroups were created for demographics and CIS characteristics at onset (gender, age, and type of unifocal presentation and steroid treatment for the initial attack), and MRI findings (disease dissemination/activity) at study baseline.

[5] = system: patients presenting a clinically isolated syndrome (CIS); remark: listed apart in the source
Procedure: A clinical trial was undertaken to assess, within the time frame of the up to 3-years placebo-controlled study period, the effect of GA on clinical and MRI parameters.
Subjects received their first dose of study medication at the baseline visit. 20 mg GA formulation was injected once daily by subcutaneous route via pre-filled syringe manufactured by Teva Pharmaceutical Industries Ltd., Israel. The duration of the double-blind phase is 36 months (3 years) or until subject's conversion to CDMS, whichever comes first.

[6] = system: patients presenting a clinically isolated syndrome (CIS); details: early treatment vs delayed start of treatment with GA
Procedure: A clinical trial was undertaken to assess, within the time frame of 5 years, the neuroprotective effect of early versus delayed treatment with GA as reflected by clinical and MRI parameters measuring the accumulated irreversible brain tissue damage.
Subjects are evaluated at study centers at baseline, at months 1, 3, and every 3 months thereafter. MRI evaluations of T1 and T2 variables are assessed at screening, baseline, at 3 months, and every 3 months thereafter until conversion to CDMS or up to 3 years. An additional MRI assessment is performed upon conversion to CDMS only if no MRI is performed within the previous month. MRI is then performed at the next scheduled visit and every 6 months thereafter.
Brain atrophy, as measured by the change in brain volume according to the Structural Image Evaluation of Normalized Atrophy (SIENA) technique is assessed at baseline, every 12 months and at conversion to CDMS.
The volume of black holes is assessed at baseline and at every 6 months.
The count of new T1-weighted hypointense lesions is assessed every 6 months.
Exploratory endpoints are defined to assess the neuroprotective effect as reflected by clinical and MRI parameters comparing the group originally assigned to GA treatment with that randomized to receive placebo treatment (delayed start of treatment with GA). The 5-year data cohort will be used for inference. […]

[7] = 20 mg once daily s.c. vs placebo

With “L-glutamic acid polymer with L-alanine, L-lysine, L-tyrosine, acetate (salt) [glatiramer acetate]” the “prolongation of the quartile time to CDMS” value [1, 7] was 115%, the “reduction of the risk in developing clinically definite MS (CDMS)” value [1, 7] was 44% and the “Kaplan-Meier time to conversion to CDMS, 25% percentile” value ([1]; 20 mg once daily s.c., ITT, placebo 336 days) was 722 days. The “total number of enhancing lesions as measured by MRI” value ([2]; 20 and 40 mg/day subcutaneous, MS patients) was “reduce”, the “efficacy in reducing the frequency of relapses” value ([2]; patients with RRMS) was “well established” and the axonal damage [3] was “reduces”. The “Risk Reduction with Copaxone over Placebo” value (from here on “Risk Reduction with Copaxone”) ([4]; Age <30 years, listed as Copaxone ®) was 53%, the “Risk Reduction with Copaxone” value ([4]; Age <30 years, listed as Copaxone®) was 53% and the “% CDMS in the placebo-controlled phase” value ([4]; Age >=30 years) was 15%. For the same substance, the “% CDMS in the placebo-controlled phase” value ([4]; Corticosteroids use for initial attack: No) was 9%, the “Risk Reduction with Copaxone” value ([4]; Corticosteroids use for initial attack: No, listed as Copaxone ®) was 54% and the “Risk Reduction with Copaxone” value ([4]; Corticosteroids use for initial attack: No, listed as Copaxone®) was 54%. The “% CDMS in the placebo-controlled phase” value ([4]; Corticosteroids use for initial attack: Yes) was 16%, the “% CDMS in the placebo-controlled phase” value ([4]; Sex: Female) was 14% and the “Risk Reduction with Copaxone” value ([4]; Sex: Female, listed as Copaxone ®) was 48%. The “Risk Reduction with Copaxone” value ([4]; Sex: Female, listed as Copaxone®) was 48%, the “% CDMS in the placebo-controlled phase” value ([4]; Sex: Male) was 11% and the “Risk Reduction with Copaxone” value ([4]; Sex: Male, listed as Copaxone ®) was 43%. The “Risk Reduction with Copaxone” value ([4]; Sex: Male, listed as Copaxone®) was 43%, the “% CDMS in the placebo-controlled phase” value ([4]; T1 Gd-enhancing lesions at baseline: T1 = 0 lesions) was 14% and the “Risk Reduction with Copaxone” value ([4]; T1 Gd-enhancing lesions at baseline: T1 = 0 lesions, listed as Copaxone ®) was 44%. For the same substance, the “Risk Reduction with Copaxone” value ([4]; T1 Gd-enhancing lesions at baseline: T1 = 0 lesions, listed as Copaxone®) was 44%, the “% CDMS in the placebo-controlled phase” value ([4]; T1 Gd-enhancing lesions at baseline: T1 >= 1 lesions) was 11% and the “Risk Reduction with Copaxone” value ([4]; T1 Gd-enhancing lesions at baseline: T1 >= 1 lesions, listed as Copaxone ®) was 71%. The “Risk Reduction with Copaxone” value ([4]; T1 Gd-enhancing lesions at baseline: T1 >= 1 lesions, listed as Copaxone®) was 71%, the “% CDMS in the placebo-controlled phase” value ([4]; T2 lesions at baseline: 2-8 lesions) was 3% and the “Risk Reduction with Copaxone” value ([4]; T2 lesions at baseline: 2-8 lesions, listed as Copaxone ®) was 67%. For the same substance, the “Risk Reduction with Copaxone” value ([4]; T2 lesions at baseline: 2-8 lesions, listed as Copaxone®) was 67%, the “% CDMS in the placebo-controlled phase” value ([4]; T2 lesions at baseline: >=9 lesions) was 22% and the “Risk Reduction with Copaxone” value ([4]; T2 lesions at baseline: >=9 lesions, listed as Copaxone ®) was 58%. The “Risk Reduction with Copaxone” value ([4]; T2 lesions at baseline: >=9 lesions, listed as Copaxone®) was 58%, the “% CDMS in the placebo-controlled phase” value ([4]; Unifocal manifestation: Optic) was 6% and the “Risk Reduction with Copaxone” value ([4]; Unifocal manifestation: Optic, listed as Copaxone ®) was 66%. For the same substance, the “Risk Reduction with Copaxone” value ([4]; Unifocal manifestation: Optic, listed as Copaxone®) was 66%, the “% CDMS in the placebo-controlled phase” value ([4]; Unifocal manifestation: Spinal) was 7% and the “Risk Reduction with Copaxone” value ([4]; Unifocal manifestation: Spinal) was 17%. The “patients who developed CDMS at the end of the two-year study” value ([5]; 20 mg once daily s.c., placebo 43 percent) was 25%, the “probability of development of CDMS over 3 years (Kaplan-Meier estimates)” value ([5]; 20 mg once daily s.c., placebo 65%) was 36.4% and the “treatment effect in decreasing the rate of new T2 lesions at LOV” value ([5]; 20 mg vs placebo, last observed value) was 58%. The “reduction of new T1 Gd-enhancing lesions in comparison to placebo, annual comparison” value ([5]; 12 months) was over 4.8 fold, the “reduction of new T2 lesions in comparison to placebo, annual comparison” value (shortened to “reduction of new T2 lesions”) ([5]; 12 months) was 6 fold and the “reduction of new T2 lesions” value ([5]; 24 months) was 4 fold. The “reduction of new lesions in comparison to placebo, annual comparison of T1 Gd-enhancing lesions” value ([5]; 24 months) was “approximately 3.8 fold”, the “Number of new T2 lesions at LOV, max” value ([5]; GA 20 mg) was 15 and the “Number of new T2 lesions at LOV, median” value ([5]; GA 20 mg) was 0. The “Number of new T2 lesions at LOV, min” value ([5]; GA 20 mg) was 0, the “Number of new T2 lesions at LOV, mean” value ([5]; GA 20 mg, placebo 1.8) was 0.7 and the “reduction of new T1 Gd-enhancing lesions in comparison to placebo, annual comparison” value ([5]; ITT cohort, 12 months) was over 4.5 fold. For the same substance, the “reduction of new T2 lesions” value ([5]; ITT cohort, 12 months) was over 3 fold, the “reduction of new T2 lesions” value ([5]; ITT cohort, 24 months) was “approximately 4 fold” and the “reduction of new lesions in comparison to placebo, annual comparison of T1 Gd-enhancing lesions” value ([5]; ITT cohort, 24 months) was “approximately 3 fold”. The “reduction of the cumulative number of new T1 Gd-enhancing lesions at LOV compared to placebo” value ([5]; last observed value) was 619, the “cumulative number of new T1 Gd-enhancing lesions at LOV” value ([5]; placebo 1.19) was 0.46 and the 5-year relapse rate [6] was “decreased”. The “level of disability (EDSS Score)” value [6] was “reduced”, the “proportion of patients who convert to CDMS during the 5-year treatment period” value [6] was “decreased” and the “time from randomization to conversion to CDMS during the 5-year period” value [6] was “increased”.
